Test system: patients with advanced solid tumors
Test: Phase Ia safety, tolerability, DLT/MTD (TRAEs graded by NCI-CTCAE v4.03)
Format: in vivo
From the text: This is a phase I clinical study (ClinicalTrials.gov identifier: NCT03544905), including a phase Ia study of oral CYH33 monotherapy in patients with advanced solid tumors, and a phase Ib study of oral CYH33 monotherapy focused on several specific tumors. […] The phase Ia study included dose-escalation stage and dose-expansion stage. […] The secondary outcomes also included evaluation of changes in PD biomarkers in response to CYH33 treatment (including proteomics of blood specimens at baseline and during treatment, immunocyte subpopulation ratios and molecular markers, cell free DNA in peripheral blood, and blood glucose). However, in compliance with the local human genetic resource regulations and procedures, peripheral blood samples were not obtained for PD biomarker analysis, therefore, only fasting blood glucose was obtained and used as a PD biomarker for CYH33 treatment. The exploratory objective was the relationship between the efficacy of CYH33 treatment and tumor biomarker status.
An accelerated titration design (ATD) and an mTPI-2 design were adopted to guide toxicity monitoring and dose escalation. The target DLT rate was 30%, with the acceptable toxicity probability interval of (0.25, 0.35). For the first two preset doses of 1 mg and 5 mg CYH33 in the ATD phase, if there were no grade ≥2 TRAEs during the DLT observation period, 100% dose escalation was allowed in the subsequent dose group. After entering the mTPI-2 phase, the SMC guidance was followed to determine the dose level, dosing frequency, and number of subjects in the next dose group, based on the previously obtained safety and PK data for that dose group. If necessary, it was permitted to add an additional dose level between two explored dose levels for further investigation.
During the phase Ia study, the safe and probably effective dose will be delivered to the expansion cohort to further investigate the safety, tolerability and efficacy of this dose level, while the dose escalation study can be continued simultaneously. If necessary, it is permitted to insert a new dose level between two explored dose levels for exploration. The subjects to be enrolled in the expansion cohort are patients with advanced solid tumors with PIK3CA gene mutations. When there are two or more dose groups at dose expansion simultaneously, the allocation ratio of the number of subjects in each dose group should be as close as possible to the ratio of ORR in each dose group. In principle, when the cumulative ORR at a certain dose level is <10%, the number of subjects in this dose group will be determined by the SMC. A total of approximately 60 patients are expected to be enrolled in the whole phase Ia study.
The secondary endpoints included preliminary efficacy assessments based on ORR, PFS, DoR, DCR, and clinical benefit rate, assessed per RECIST 1.1,PK parameters for CYH33 and its metabolite I27, and changes in PD biomarkers in response to CYH33 treatment.

With `COC(=O)Nc1cc(C(F)(F)F)c(-c2nc(N3CCOCC3)c3cc(CN4CCN(S(C)(=O)=O)CC4)cn3n2)cn1` [CYH33, methyl (5-(6-((4-(methylsulfonyl)piperazin-1-yl)methyl)−4-morpholinopyrrolo[2,1-f][1,2,4]triazin-2-yl)−4-(trifluoromethyl)pyridin-2-yl)carbamate] the “Blood glucose increased, Grade ≥ 3 TRAE” value (30 mg QD, n = 12) was 0 n (%), the “Decreased appetite, Grade ≥ 3 TRAE” value (30 mg QD, n = 12) was 0 n (%) and the “Decreased appetite, all-grade TRAE” value (30 mg QD, n = 12) was 4 (33.3) n (%). For the same molecule, the “Diabetic ketosis, Grade ≥ 3 TRAE” value (30 mg QD, n = 12) was 1 (8.3) n (%), the “Diarrhea, Grade ≥ 3 TRAE” value (30 mg QD, n = 12) was 0 n (%) and the “Diarrhea, all-grade TRAE” value (30 mg QD, n = 12) was 2 (16.7) n (%). For the same molecule, the “Dizziness, Grade ≥ 3 TRAE” value (30 mg QD, n = 12) was 0 n (%), the “Electrocardiogram QT prolonged, Grade ≥ 3 TRAE” value (shortened to “Electrocardiogram QT prolonged”) (30 mg QD, n = 12) was 0 n (%) and the “Face oedema, Grade ≥ 3 TRAE” value (30 mg QD, n = 12) was 0 n (%). The “Facial edema, all-grade TRAE” value (30 mg QD, n = 12) was 4 (33.3) n (%), the “Fatigue, Grade ≥ 3 TRAE” value (30 mg QD, n = 12) was 0 n (%) and the “Fatigue, all-grade TRAE” value (30 mg QD, n = 12) was 2 (16.7) n (%). The “Generalized oedema, Grade ≥ 3 TRAE” value (30 mg QD, n = 12) was 1 (8.3) n (%), the “Grade ≥ 3 TRAEs in all patients” value (30 mg QD, n = 12) was 7 (58.3) n (%) and the “Hyperglycemia, Grade ≥ 3 TRAE” value (30 mg QD, n = 12) was 7 (58.3) n (%). For the same molecule, the “Hyperglycemia, all-grade TRAE” value (30 mg QD, n = 12) was 11 (91.7) n (%), the “Hyponatremia, all-grade TRAE” value (30 mg QD, n = 12) was 4 (33.3) n (%) and the “Mouth ulceration, Grade ≥ 3 TRAE” value (30 mg QD, n = 12) was 0 n (%). For the same molecule, the “Nausea, Grade ≥ 3 TRAE” value (30 mg QD, n = 12) was 0 n (%), the “Nausea, all-grade TRAE” value (30 mg QD, n = 12) was 6 (50.0) n (%) and the “Peripheral edema, Grade ≥ 3 TRAE” value (30 mg QD, n = 12) was 0 n (%). For the same molecule, the “Peripheral edema, all-grade TRAE” value (30 mg QD, n = 12) was 4 (33.3) n (%), the “Rash, Grade ≥ 3 TRAE” value (30 mg QD, n = 12) was 0 n (%) and the “Rash, all-grade TRAE” value (30 mg QD, n = 12) was 2 (16.7) n (%). For the same molecule, the “TRAEs leading to death” value (30 mg QD, n = 12) was 0 n (%), the “TRAEs leading to dose discontinuation” value (30 mg QD, n = 12) was 1 (8.3) n (%) and the “TRAEs leading to dose interruption” value (30 mg QD, n = 12) was 10 (83.3) n (%). For the same molecule, the “TRAEs leading to dose reduction” value (30 mg QD, n = 12) was 0 n (%), the “TRAEs occurring in ≥ 10% of patients” value (30 mg QD, n = 12) was 12 (100) n (%) and the “Treatment-related serious adverse events” value (30 mg QD, n = 12) was 1 (8.3) n (%). The “Vomiting, all-grade TRAE” value (30 mg QD, n = 12) was 3 (25.0) n (%), the “Weight loss, all-grade TRAE” value (30 mg QD, n = 12) was 4 (33.3) n (%) and the “White blood cell count decreased, Grade ≥ 3 TRAE” value (30 mg QD, n = 12) was 0 n (%). The “Blood glucose increased, Grade ≥ 3 TRAE” value (40 mg QD, n = 24) was 0 n (%), the “Decreased appetite, Grade ≥ 3 TRAE” value (40 mg QD, n = 24) was 1 (4.2) n (%) and the “Decreased appetite, all-grade TRAE” value (40 mg QD, n = 24) was 12 (50.0) n (%). For the same molecule, the “Diabetic ketosis, Grade ≥ 3 TRAE” value (40 mg QD, n = 24) was 0 n (%), the “Diarrhea, Grade ≥ 3 TRAE” value (40 mg QD, n = 24) was 1 (4.2) n (%) and the “Diarrhea, all-grade TRAE” value (40 mg QD, n = 24) was 7 (29.2) n (%). The “Dizziness, Grade ≥ 3 TRAE” value (40 mg QD, n = 24) was 1 (4.2) n (%), the “Electrocardiogram QT prolonged” value (40 mg QD, n = 24) was 0 n (%) and the “Face oedema, Grade ≥ 3 TRAE” value (40 mg QD, n = 24) was 1 (4.2) n (%). The “Facial edema, all-grade TRAE” value (40 mg QD, n = 24) was 4 (16.7) n (%), the “Fatigue, Grade ≥ 3 TRAE” value (40 mg QD, n = 24) was 1 (4.2) n (%) and the “Fatigue, all-grade TRAE” value (40 mg QD, n = 24) was 6 (25.0) n (%). The “Generalized oedema, Grade ≥ 3 TRAE” value (40 mg QD, n = 24) was 0 n (%), the “Grade ≥ 3 TRAEs in all patients” value (40 mg QD, n = 24) was 19 (79.2) n (%) and the “Hyperglycemia, Grade ≥ 3 TRAE” value (40 mg QD, n = 24) was 17 (70.8) n (%). The “Hyperglycemia, all-grade TRAE” value (40 mg QD, n = 24) was 23 (95.8) n (%), the “Hyponatremia, all-grade TRAE” value (40 mg QD, n = 24) was 2 (8.3) n (%) and the “Mouth ulceration, Grade ≥ 3 TRAE” value (40 mg QD, n = 24) was 1 (4.2) n (%). The “Mouth ulceration, all-grade TRAE” value (40 mg QD, n = 24) was 5 (20.8) n (%), the “Nausea, Grade ≥ 3 TRAE” value (40 mg QD, n = 24) was 0 n (%) and the “Nausea, all-grade TRAE” value (40 mg QD, n = 24) was 9 (37.5) n (%). For the same molecule, the “Peripheral edema, Grade ≥ 3 TRAE” value (40 mg QD, n = 24) was 4 (16.7) n (%), the “Peripheral edema, all-grade TRAE” value (40 mg QD, n = 24) was 8 (33.3) n (%) and the “Rash, Grade ≥ 3 TRAE” value (40 mg QD, n = 24) was 1 (4.2) n (%). The “Rash, all-grade TRAE” value (40 mg QD, n = 24) was 6 (25.0) n (%), the “TRAEs leading to death” value (40 mg QD, n = 24) was 0 n (%) and the “TRAEs leading to dose discontinuation” value (40 mg QD, n = 24) was 2 (8.3) n (%). The “TRAEs leading to dose interruption” value (40 mg QD, n = 24) was 19 (79.2) n (%), the “TRAEs leading to dose reduction” value (40 mg QD, n = 24) was 5 (20.8) n (%) and the “TRAEs occurring in ≥ 10% of patients” value (40 mg QD, n = 24) was 23 (95.8) n (%). The “Treatment-related serious adverse events” value (40 mg QD, n = 24) was 4 (16.7) n (%), the “Vomiting, all-grade TRAE” value (40 mg QD, n = 24) was 6 (25.0) n (%) and the “Weight loss, all-grade TRAE” value (40 mg QD, n = 24) was 9 (37.5) n (%). For the same molecule, the “White blood cell count decreased, Grade ≥ 3 TRAE” value (40 mg QD, n = 24) was 1 (4.2) n (%), the DLT rate (40 mg dose level, 1 out of 6 DLT evaluable patients) was 16.7% and the “patients with DLT: grade 3 hyperglycemia” value (40 mg, dose-escalation stage (19 patients)) was 1. The “patients with DLT: grade 3 hyperglycemia and grade 3 nausea” value (60 mg, dose-escalation stage (19 patients)) was 2, the “Blood glucose increased, Grade ≥ 3 TRAE” value (1–20 mg QD, n = 10) was 0 n (%) and the “Decreased appetite, Grade ≥ 3 TRAE” value (1–20 mg QD, n = 10) was 0 n (%). The “Decreased appetite, all-grade TRAE” value (1–20 mg QD, n = 10) was 3 (30.0) n (%), the “Diabetic ketosis, Grade ≥ 3 TRAE” value (1–20 mg QD, n = 10) was 0 n (%) and the “Diarrhea, Grade ≥ 3 TRAE” value (1–20 mg QD, n = 10) was 0 n (%). The “Diarrhea, all-grade TRAE” value (1–20 mg QD, n = 10) was 3 (30.0) n (%), the “Dizziness, Grade ≥ 3 TRAE” value (1–20 mg QD, n = 10) was 0 n (%) and the “Electrocardiogram QT prolonged” value (1–20 mg QD, n = 10) was 1 (10.0) n (%). The “Face oedema, Grade ≥ 3 TRAE” value (1–20 mg QD, n = 10) was 0 n (%), the “Facial edema, all-grade TRAE” value (1–20 mg QD, n = 10) was 0 n (%) and the “Fatigue, Grade ≥ 3 TRAE” value (1–20 mg QD, n = 10) was 0 n (%). The “Fatigue, all-grade TRAE” value (1–20 mg QD, n = 10) was 1 (10.0) n (%).
